The values that follow come from patent US20250115669A1, “FGFR1/KLB Targeting Agonistic Antigen-Binding Proteins and Conjugates Thereof with GLP-1R Agonistic Peptides” (SANOFI, priority 2020, published 2025).

Bridge positions count the residues as written; N and C are the ends. Ends that are not written are not given here. Peptide text beside a SMILES is read from it.

Type in all cases: cell-based
Assay [1] addresses T1, FGFR1c and co-receptor beta-Klotho (KLB) (Homo sapiens, UniProt P11362+Q86Z14).
T1 construct: host or cells: iLite FGF21 Assay Ready Cells (HEK293)
As to the kind of experiment: Luciferase reporter gene assay (iLite FGF21 Assay Ready Cells), FGF21-like signaling. To be noted: monovalent Fab versus bivalent antibody.

The next assay concerns the target T2, human GLP-1 receptor (Homo sapiens, UniProt P43220).
T2 construct: expressed in transfected cells; host or cells: PSC-HEK-293
As to the kind of experiment: HTRF cAMP assay in HEK-293 cells expressing human GLP-1 receptor. Particulars: HEK-293 cells; read-out: HTRF cAMP EC50 Human GLP-1R.

Assay [2] addresses T3, human glucagon (GCG) receptor (Homo sapiens, UniProt P47871).
T3 construct: expressed in transfected cells; host or cells: PSC-HEK-293
The experiment in a line: HTRF cAMP assay in HEK-293 cells expressing human glucagon receptor. To be noted: HEK-293 cells; read-out: HTRF cAMP EC50 Human GCGR.

For the next assay, the target named is T4, human GIP receptor (Homo sapiens, UniProt P48546).
T4 construct: expressed in transfected cells; host or cells: PSC-HEK-293
T4 sequence (P48546 22-466): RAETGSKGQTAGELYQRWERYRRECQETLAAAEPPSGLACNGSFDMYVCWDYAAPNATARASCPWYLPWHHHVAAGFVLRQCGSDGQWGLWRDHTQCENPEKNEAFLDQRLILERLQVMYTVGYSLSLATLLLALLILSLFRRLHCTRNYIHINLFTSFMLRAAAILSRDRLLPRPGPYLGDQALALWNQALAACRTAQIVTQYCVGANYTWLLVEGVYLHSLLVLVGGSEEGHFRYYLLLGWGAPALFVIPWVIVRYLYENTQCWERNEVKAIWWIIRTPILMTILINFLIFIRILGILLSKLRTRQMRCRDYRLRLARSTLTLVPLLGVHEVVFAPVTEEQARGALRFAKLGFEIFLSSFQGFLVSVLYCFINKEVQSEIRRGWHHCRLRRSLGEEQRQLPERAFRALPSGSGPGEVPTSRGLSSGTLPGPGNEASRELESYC
As to the kind of experiment: HTRF cAMP assay in HEK-293 cells expressing human GIP receptor. To be noted: HEK-293 cells; read-out: HTRF cAMP EC50 Human GIPR.

T2 sequence (P43220 24-463): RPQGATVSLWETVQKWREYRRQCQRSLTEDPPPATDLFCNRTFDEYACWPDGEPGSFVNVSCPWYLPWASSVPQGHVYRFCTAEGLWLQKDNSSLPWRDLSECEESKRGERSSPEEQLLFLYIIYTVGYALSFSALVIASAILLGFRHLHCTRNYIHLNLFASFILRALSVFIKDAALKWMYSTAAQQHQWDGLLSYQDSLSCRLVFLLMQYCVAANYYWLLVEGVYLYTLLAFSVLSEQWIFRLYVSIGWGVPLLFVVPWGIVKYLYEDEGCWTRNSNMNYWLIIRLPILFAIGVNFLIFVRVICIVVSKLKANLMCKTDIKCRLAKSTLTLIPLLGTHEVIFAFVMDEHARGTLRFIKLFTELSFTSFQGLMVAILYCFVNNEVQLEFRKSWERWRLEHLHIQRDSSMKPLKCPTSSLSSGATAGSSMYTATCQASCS
T3 sequence (P47871 26-477): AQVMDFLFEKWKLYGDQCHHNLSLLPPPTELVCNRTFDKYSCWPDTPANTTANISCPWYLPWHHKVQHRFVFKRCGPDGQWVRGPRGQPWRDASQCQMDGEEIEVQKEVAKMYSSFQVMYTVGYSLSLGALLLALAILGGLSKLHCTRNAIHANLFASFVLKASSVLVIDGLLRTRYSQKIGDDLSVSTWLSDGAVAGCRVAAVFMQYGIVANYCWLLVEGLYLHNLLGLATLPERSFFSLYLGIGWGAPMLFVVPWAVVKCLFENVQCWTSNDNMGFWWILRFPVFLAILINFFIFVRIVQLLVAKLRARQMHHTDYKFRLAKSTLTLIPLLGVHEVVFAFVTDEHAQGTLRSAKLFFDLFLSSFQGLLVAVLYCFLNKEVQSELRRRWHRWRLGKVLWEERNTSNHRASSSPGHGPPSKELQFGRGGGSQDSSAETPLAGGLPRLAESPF
T1 sequence (Q86Z14 53-1044 limits assumed): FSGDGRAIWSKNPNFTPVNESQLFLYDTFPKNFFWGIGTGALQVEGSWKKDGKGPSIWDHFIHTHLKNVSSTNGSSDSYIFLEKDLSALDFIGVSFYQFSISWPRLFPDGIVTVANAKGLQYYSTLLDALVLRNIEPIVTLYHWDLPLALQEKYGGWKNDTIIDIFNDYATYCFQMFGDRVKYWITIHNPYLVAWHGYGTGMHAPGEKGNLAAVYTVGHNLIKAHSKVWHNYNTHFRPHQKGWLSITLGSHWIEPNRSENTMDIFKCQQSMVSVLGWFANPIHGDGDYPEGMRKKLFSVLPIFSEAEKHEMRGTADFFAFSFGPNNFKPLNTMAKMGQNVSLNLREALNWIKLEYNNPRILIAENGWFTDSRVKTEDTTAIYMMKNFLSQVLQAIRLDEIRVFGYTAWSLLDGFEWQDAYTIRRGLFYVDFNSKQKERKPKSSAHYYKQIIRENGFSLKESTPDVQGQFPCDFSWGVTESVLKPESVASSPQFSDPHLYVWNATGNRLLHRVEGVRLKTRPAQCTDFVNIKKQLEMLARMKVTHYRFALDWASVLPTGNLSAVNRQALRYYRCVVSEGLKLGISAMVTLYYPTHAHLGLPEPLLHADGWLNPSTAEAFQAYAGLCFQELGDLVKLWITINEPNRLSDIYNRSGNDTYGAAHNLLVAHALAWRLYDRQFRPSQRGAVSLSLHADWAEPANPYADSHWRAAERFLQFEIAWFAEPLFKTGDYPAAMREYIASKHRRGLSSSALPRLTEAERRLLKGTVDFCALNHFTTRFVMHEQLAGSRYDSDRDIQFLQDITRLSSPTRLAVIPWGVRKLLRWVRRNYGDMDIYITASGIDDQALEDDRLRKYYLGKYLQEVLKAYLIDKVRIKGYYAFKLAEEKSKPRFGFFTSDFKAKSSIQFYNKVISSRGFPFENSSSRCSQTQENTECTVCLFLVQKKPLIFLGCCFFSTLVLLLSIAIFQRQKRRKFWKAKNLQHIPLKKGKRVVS
T1 sequence (P11362 22-820 isoform P11362-2 limits assumed): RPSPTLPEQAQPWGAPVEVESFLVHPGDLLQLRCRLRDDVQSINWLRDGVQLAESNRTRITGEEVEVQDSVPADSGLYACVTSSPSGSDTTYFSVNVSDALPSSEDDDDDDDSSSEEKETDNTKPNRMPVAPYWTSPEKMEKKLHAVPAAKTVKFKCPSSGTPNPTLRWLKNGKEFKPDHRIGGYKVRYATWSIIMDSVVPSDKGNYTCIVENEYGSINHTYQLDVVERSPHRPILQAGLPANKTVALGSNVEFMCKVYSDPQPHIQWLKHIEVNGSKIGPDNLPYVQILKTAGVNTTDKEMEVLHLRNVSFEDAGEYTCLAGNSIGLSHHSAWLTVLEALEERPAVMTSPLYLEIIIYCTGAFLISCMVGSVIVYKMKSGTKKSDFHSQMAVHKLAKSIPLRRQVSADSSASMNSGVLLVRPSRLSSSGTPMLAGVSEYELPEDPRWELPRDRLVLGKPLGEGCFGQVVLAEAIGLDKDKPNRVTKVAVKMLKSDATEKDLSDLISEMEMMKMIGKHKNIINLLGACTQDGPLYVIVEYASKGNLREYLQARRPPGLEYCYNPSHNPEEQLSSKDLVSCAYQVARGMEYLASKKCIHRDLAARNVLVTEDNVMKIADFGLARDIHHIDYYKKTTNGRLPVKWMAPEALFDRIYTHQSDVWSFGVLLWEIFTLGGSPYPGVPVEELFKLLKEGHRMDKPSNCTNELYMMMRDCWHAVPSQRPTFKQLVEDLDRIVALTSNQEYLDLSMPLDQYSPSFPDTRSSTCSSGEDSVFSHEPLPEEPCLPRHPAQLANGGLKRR

In the case of “16H7-Fab: monovalent Fab fragment (antigen-binding fragment) of 16H7 [Ab 16H7-Fab, reference compound]”, the “FGF21-like activity in Luciferase gene reporter assay (in words)” value in assay [1] is “inactive”.

With `CC[C@H](C)[C@H](NC(=O)[C@H](Cc1ccccc1)NC(=O)[C@H](CC(C)C)NC(=O)[C@H](Cc1c[nH]cn1)NC(=O)[C@H](CCC(N)=O)NC(=O)[C@H](C)NC(=O)[C@H](CCC(=O)O)NC(=O)[C@H](CCC(=O)O)NC(=O)[C@H](CCC(=O)O)NC(=O)[C@H](CC(C)C)NC(=O)[C@H](CCC(N)=O)NC(=O)[C@H](CCCCN)NC(=O)[C@H](CO)NC(=O)[C@H](CC(C)C)NC(=O)[C@H](CC(=O)O)NC(=O)[C@H](CO)NC(=O)[C@@H](NC(=O)[C@H](Cc1ccccc1)NC(=O)[C@@H](NC(=O)CNC(=O)[C@H](CCC(=O)O)NC(=O)CNC(=O)[C@H](Cc1c[nH]cn1)NC(=O)CN)[C@@H](C)O)[C@@H](C)O)C(=O)N[C@@H](CCC(=O)O)C(=O)N[C@@H](Cc1c[nH]c2ccccc12)C(=O)N[C@@H](CC(C)C)C(=O)N[C@@H](CCCCN)C(=O)N[C@@H](C)C(=O)NCC(=O)NCC(=O)N1CCC[C@H]1C(=O)N[C@@H](CO)C(=O)N[C@@H](CO)C(=O)NCC(=O)N[C@@H](CCCCN)C(=O)N1CCC[C@H]1C(=O)N1CCC[C@H]1C(=O)N1CCC[C@H]1C(=O)N[C@@H](CCCCN)C(N)=O` [Ab P037] (H-GHGEGTFTSDLSKQLEEEAQHLFIEWLKAGGPSSGKPPPK-NH2; N-terminus assumed), the EC50 is 0.158 nM on human GLP-1 receptor, more than 10 nM in assay [2] and more than 10 nM on human GIP receptor.

For the compound `CC[C@H](C)[C@H](NC(=O)[C@H](Cc1ccccc1)NC(=O)[C@H](CC(C)C)NC(=O)[C@H](CCC(N)=O)NC(=O)[C@@H](NC(=O)[C@H](C)NC(=O)[C@H](CCC(=O)O)NC(=O)[C@H](CCC(=O)O)NC(=O)[C@H](CCC(=O)O)NC(=O)[C@H](CC(C)C)NC(=O)[C@H](CCC(N)=O)NC(=O)[C@H](CCCCN)NC(=O)[C@H](CO)NC(=O)[C@H](CC(C)C)NC(=O)[C@H](CC(=O)O)NC(=O)[C@H](CO)NC(=O)[C@@H](NC(=O)[C@H](Cc1ccccc1)NC(=O)[C@@H](NC(=O)CNC(=O)[C@H](CCC(=O)O)NC(=O)CNC(=O)[C@H](Cc1c[nH]cn1)NC(=O)CN)[C@@H](C)O)[C@@H](C)O)C(C)C)C(=O)N[C@@H](CCC(=O)O)C(=O)N[C@@H](Cc1c[nH]c2ccccc12)C(=O)N[C@@H](CC(C)C)C(=O)N[C@@H](CCCCN)C(=O)N[C@@H](C)C(=O)NCC(=O)NCC(=O)N1CCC[C@H]1C(=O)N[C@@H](CO)C(=O)N[C@@H](CO)C(=O)NCC(=O)N[C@@H](CCCCN)C(=O)N1CCC[C@H]1C(=O)N1CCC[C@H]1C(=O)N1CCC[C@H]1C(=O)N[C@@H](CCCCN)C(N)=O` [Ab P038] (H-GHGEGTFTSDLSKQLEEEAVQLFIEWLKAGGPSSGKPPPK-NH2; N-terminus assumed), the values for the half-maximal effective concentration (EC50) (at human GLP-1 receptor; in assay [2]; on human GIP receptor) were 0.0524 nM, more than 10 nM and more than 10 nM, respectively.

Turning to `CC[C@H](C)[C@H](NC(=O)[C@H](Cc1ccccc1)NC(=O)[C@H](CC(C)C)NC(=O)[C@H](CCCNC(=N)N)NC(=O)[C@@H](NC(=O)[C@H](C)NC(=O)[C@H](CCC(=O)O)NC(=O)[C@H](CCC(=O)O)NC(=O)[C@H](CCC(=O)O)NC(=O)[C@H](CC(C)C)NC(=O)[C@H](CCC(N)=O)NC(=O)[C@H](CCCCN)NC(=O)[C@H](CO)NC(=O)[C@H](CCCCN)NC(=O)[C@H](CC(=O)O)NC(=O)[C@H](CO)NC(=O)[C@@H](NC(=O)[C@H](Cc1ccccc1)NC(=O)[C@@H](NC(=O)CNC(=O)[C@H](CCC(=O)O)NC(=O)CNC(=O)[C@H](Cc1c[nH]cn1)NC(=O)CN)[C@@H](C)O)[C@@H](C)O)C(C)C)C(=O)N[C@@H](C)C(=O)N[C@@H](Cc1c[nH]c2ccccc12)C(=O)N[C@@H](CC(C)C)C(=O)N[C@H](C(=O)N[C@@H](CCCCN)C(N)=O)C(C)C` [Ab P040] (H-GHGEGTFTSDKSKQLEEEAVRLFIAWLVK-NH2; N-terminus assumed), the EC50 is 0.0627 nM at human GLP-1 receptor, more than 10 nM in assay [2] and more than 10 nM at human GIP receptor.

Regarding `CC[C@H](C)[C@H](NC(=O)[C@H](Cc1ccccc1)NC(=O)[C@H](CC(C)C)NC(=O)[C@H](CCC(N)=O)NC(=O)[C@@H](NC(=O)[C@H](C)NC(=O)[C@H](CCC(=O)O)NC(=O)[C@H](CCC(=O)O)NC(=O)[C@H](CCC(=O)O)NC(=O)[C@H](CC(C)C)NC(=O)[C@H](CCC(N)=O)NC(=O)[C@H](CCCCN)NC(=O)[C@H](CO)NC(=O)[C@H](CC(C)C)NC(=O)[C@H](CC(=O)O)NC(=O)[C@H](CO)NC(=O)[C@@H](NC(=O)[C@H](Cc1ccccc1)NC(=O)[C@@H](NC(=O)CNC(=O)[C@H](CCC(=O)O)NC(=O)CNC(=O)[C@H](Cc1c[nH]cn1)NC(=O)CN)[C@@H](C)O)[C@@H](C)O)C(C)C)C(=O)N[C@@H](C)C(=O)N[C@@H](Cc1c[nH]c2ccccc12)C(=O)N[C@@H](CC(C)C)C(=O)N[C@H](C(=O)N[C@@H](CCCCN)C(N)=O)C(C)C` [Ab P041] (H-GHGEGTFTSDLSKQLEEEAVQLFIAWLVK-NH2; N-terminus assumed), the concentration for a half-maximal effect (EC50) at human GLP-1 receptor was 0.0325 nM; in assay [2], more than 10 nM; on human GIP receptor it was more than 10 nM.

On to “HGEGTFTSDLSKQCEEERVQLFIEWLKATGPSSGKPPPKPGC-NH2 (disulfide 14-42) [Ab P035]”, for which the results for the concentration for a half-maximal effect (EC50) (on human GLP-1 receptor; in assay [2]; on human GIP receptor) were 0.0203 nM, more than 10 nM and more than 10 nM, respectively.
